Assays:
αSMA+ stress fibers = assay: TGFβ-induced αSMA+ stress fiber formation; type: cell-based, human; conditions: IMR-90, TGFβ 72 hours, DHX 10 μM from 48-72 hours
Method: ImmunofluorescenceMicroscopy: Cells were plated into 96 well plates (Corning 3603) in their specific growth media and allowed to attach (8 hours). Media was then exchanged for the indicated conditions for each experiment. Cells were fixed in 3.7% formalin (Sigma-Aldrich), permeabilized in 0.25% Triton X-100 (Sigma-Aldrich) and then blocked with 1% BSA for 1 h. Cells or tissue sections were incubated overnight with mouse monoclonal antibody against αSMA (Sigma-Aldrich F3777), and/or a rabbit monoclonal antibody against YAP/TAZ (Cell Signaling D24E4) diluted 1:200 in PBS with 1% BSA.

[1] = test system: bile duct ligation mediated hepatic fibrosis; assay: Bile Duct Ligation model of liver fibrosis; type: in vivo, mouse; conditions: BDL mice, DHX 5 mg/kg i.p. daily from Day 7 for 14 days
Method: Bile Duct Ligation: BDL was performed as previously described. Briefly, 8-10 weak old female C57BL/6N underwent either BDL or sham surgery. Mice were anesthetized on Day 0 following IACUC protocol, and the bile duct was ligated using sterile 3/0 silk ligatures. Sham surgery was performed by passing a silk ligature under the bile duct. Starting on Day 7, DHX (5 mg/kg) or vehicle control was administered everyday intraperitoneally (i.p.) for 14 days. Following the final DHX treatment, mice were sacrificed and the livers harvested for analysis of fibrosis.
Histological Scoring: Five μm thick sections were cut from Paraffin embedded lung tissues, and the sections were stained either with hematoxylin and eosin (H&E) or with Masson's Trichrome stain kit (Abcam). […] The severity of interstitial and peribronchiolar lung immature and mature fibrosis was estimated on a numerical scale according to Ashcroft et al. For scoring purposes, all H&E stained slides were systematically scanned at 100× magnification and successive 100× fields were scored. […] The predominant score for each field was recorded. The mean of all scores was calculated for each case. Liver trichrome stained sections were computationally measured using Image J software. […]
Hydroxyproline: Hydroxyproline content was measured using a hydroxyproline assay kit (Biovision) according to the manufacture's instruction with slight modification. […]

[2] = test system: hepatic stellate cells (HSCs); assay: Western blot of αSMA and Fibronectin in TGFβ-stimulated hepatic stellate cells; type: cell-based, human; conditions: TGFβ 48 hours +/- DHX 10 μM
Method: FIGS. 10A-10D DHX reverses hepatic stellate cell activation and in vivo hepatic fibrosis. 10a. DRD1 is preferentially expressed in cultured human hepatic stellate cells (HSCs): ACTA2, PDGFRA positive, relative to cultured human hepatocytes (Heps): ALB positive. N=1. 10b. DHX inhibits TGFβ-mediated hepatic stellate cell activation in vitro. HSCs were stimulated with TGFβ for 48 hours+/−DHX (10 μM) prior to total protein isolation and western blot analysis of αSMA and Fibronectin. N=3 (***p<0.001, **p<0.01, *p<0.05 vs. Control+TGFβ). 10c. DHX reverses Bile duct ligation (BDL) mediated fibrosis in vivo measured by trichrome staining, and 10d. hydroxyproline. Sham Control N=5, BDL Control N=7, and BDL DHX N=8 (**p<0.01 vs. BDL Control).
Western Blotting: Cells were plated in EMEM containing 10% FBS overnight. Media was exchanged with EMEM containing 0.1% FBS for 24 hours. Prior to protein isolation cells were treated with the indicated concentration of compounds for the indicated time. Total protein was isolated using RIPA buffer (pH 8.0) containing Pierce Phosphatase Inhibitor (Thermo) and Halt Protease Inhibitor Cocktail (Thermo). Lysate total protein concentration was determined using Pierce BCA Protein Assay Kit (Thermo) and samples were run on a 10% polyacrylamide gel. […] Plates were imaged via a Li-Cor OdysseyXL system with quantification performed via densitometry.

Oc1cc2c(cc1O)[C@H]1c3ccccc3CN[C@@H]1CC2 (racemic) [Dihydrexidine, dihydrexidine]
myofibroblastic transition (αSMA+ stress fibers) (αSMA+ stress fibers): reversed this transition
collagen deposition (hydroxyproline) [1]: trend toward reduced collagen deposition
histological fibrosis (trichrome) [1]: significantly improved histological fibrosis
TGFβ-mediated HSC expression of SMA and FN protein [2]: significant reversal of both

From US20240252463A1, “METHODS OF TREATING FIBROTIC PATHOLOGIES” (Mayo Foundation for Medical Education and Research, priority 2018, published 2024)
